According to PMC8010149, “A Therapeutic Strategy to Combat HIV-1 Latently Infected Cells With a Combination of Latency-Reversing Agents Containing DAG-Lactone PKC Activators” (Frontiers in Microbiology, 2021):

Legend:
[1] = test system: HIV-1 latently infected ACH-2 cells; experiment: HIV-1 latency reversal, p24 antigen in supernatant, ACH-2 cells; type: cell-based; details: Human immunodeficiency virus 1, ACH-2, 48 h
Protocol: (§1) The reactivation of HIV-1 from latently infected cells was determined by intracellular p24 protein expression and quantification of p24 antigen in the supernatant (ACH-2 and U1 cells), or by changes in intracellular green fluorescent protein (GFP) expression (J-Lat 10.6 cells). J-Lat ([Jordan et al., 2003]), ACH-2, or U1 cells (5 × 10^5 cells/ml) were seeded in 96-well plates and incubated with different drug concentrations for 24 h to collect the cells. The supernatant was collected after 48 h. The increase in supernatant p24 antigen levels was measured using a Lumipulse G1200 (FUJIREBIO, Tokyo, Japan). J-Lat cells (5 × 10^5 cells/ml) were placed in 48-well plates and incubated with different drug concentrations for 24 h. Intracellular p24 protein expression and GFP-positive cells were analyzed by flow cytometry.

[2] = Cytotoxicity of LRAs in A3.01 cells; type: cell-based; details: human, day 7
Protocol: (§2) To determine the cytotoxicity of LRAs, A3.01, and U937 cells (5 × 10^5 cells/ml), which are the parental cells for ACH-2 and U1 cells, respectively, were cultured in the presence or absence of LRAs. After 7 days, cell viability was examined using the Cell Counting Kit-8 assay (Dojindo, Kumamoto, Japan) according to the manufacturer’s instructions. The numbers of living cells after drug treatment were measured and compared to those in untreated cells and are presented as a percentage relative to the control.

[3] = test system: HIV-1 latently infected U1 cells; experiment: HIV-1 latency reversal, p24 antigen in supernatant, U1 cells; type: cell-based; details: Human immunodeficiency virus 1, 48 h
Protocol: as §1

[4] = Cytotoxicity of LRAs in U937 cells; type: cell-based; details: human, day 7
Protocol: as §2

[5] = test system: HIV-1 latently infected U1 cells; experiment: Intracellular HIV-1 p24 by flow cytometry in U1 cells; type: cell-based
Protocol: as §1
(§3) The amount of intracellular HIV-1 p24 and the active form of caspase-3 were determined by flow cytometry, as previously described ([Matsuda et al., 2015], [2019]). In brief, ACH-2 and U1 cells (2.5 × 10^5 cells/ml) were fixed with 1% paraformaldehyde/PBS for 20 min and permeabilized with Flow Cytometry Perm Buffer (TONBO Biosciences, San Diego, CA, United States). After 5 min of incubation at room temperature, the cells were stained with FITC anti-HIV-1 p24 (24-4) monoclonal antibody (mAb; Santa Cruz Biotechnology, Dallas, TX, United States) or Alexa Fluor 647-conjugated anti-active caspase-3 (C92-605) mAb (BD Pharmingen, San Diego, CA, United States) for 30 min on ice. For T cell activation and exhaustion marker staining, PBMCs from healthy donors separated by the above density gradient centrifugation method were incubated with fixable viability stain Ghost Dye 780 (TONBO Biosciences) for 30 min on ice. The cells were then stained with Brilliant Violet 510 anti-human CD3 (UCHT1) mAb (BioLegend), FITC anti-human CD4 (RPA-T4) mAb (TONBO Biosciences), PE-Cy7 anti-human CD8a (RPA-T8) mAb (TONBO Biosciences), PerCP-Cy5.5 anti-human CD38 (HB-7) mAb (BioLegend), PE anti-human CD69 (FN50) mAb (BioLegend), or Alexa Fluor 647 anti-human CD279/PD-1 (EH12.1) mAb (BD Biosciences, San Jose, CA, United States) for 30 min on ice. Next, the cells were analyzed using BD FACSVerse (BD Biosciences). In the analysis, unstained cells were used as a negative control to set the gating for each experiment. The collected data were analyzed using FlowJo software (Tree Star, San Carlos, CA, United States).

[6] = test system: HIV-1 latently infected ACH-2 cells; experiment: Intracellular HIV-1 p24 by flow cytometry in ACH-2 cells; type: cell-based
Protocol: as §1, §3

J-Lat 10.6 cells = type: cell-based, HIV-1; details: J-Lat 10.6 cells, 24 h
Protocol: The reactivation of HIV-1 from latently infected cells was determined by intracellular p24 protein expression and quantification of p24 antigen in the supernatant (ACH-2 and U1 cells), or by changes in intracellular green fluorescent protein (GFP) expression (J-Lat 10.6 cells). […] The supernatant was collected after 48 h. The increase in supernatant p24 antigen levels was measured using a Lumipulse G1200 (FUJIREBIO, Tokyo, Japan). […] Intracellular p24 protein expression and GFP-positive cells were analyzed by flow cytometry.
Differences between groups were analyzed for statistical significance using unpaired t-tests. Statistical significance was set at p < 0.05. Statistical analyses were performed using GraphPad Prism version 8 (GraphPad Software, La Jolla, CA, United States). CompuSyn software, based on the quantitative analysis of dose-effect relationships between multiple drugs by Chou and Talalay, was utilized to determine the synergism or antagonism of drug combinations ([Chou and Talalay, 1984]). To confirm synergy, this software calculates combination index (CI) values, which further assist in determining the nature of the combination compared to single drug effects. A CI value <1 indicates synergistic effects.

U937 cells = experiment: Active caspase-3 by flow cytometry in U937 cells; type: cell-based; details: 10 μM, 24 h
U1 cells = experiment: Active caspase-3 by flow cytometry in U1 cells; type: cell-based; details: 10 µM, 24 h
Protocol: as §3, with “The cells were then stained with Brilliant Violet 510 anti-human CD3 (UCHT1) mAb (BioLegend), FITC anti-human CD4 (RPA-T4) mAb (TONBO Biosciences), PE-Cy7 anti-human CD8a (RPA-T8) mAb (TONBO Biosciences), PerCP-Cy5.5 anti-human CD38 (HB-7) mAb (BioLegend), PE anti-human CD69 (FN50) mAb (BioLegend), or Alexa Fluor 647 anti-human CD279/PD-1 (EH12.1) mAb (BD Biosciences, San Jose, CA, United States) for 30 min on ice.” left out, “In the analysis, unstained cells were used as a negative control to set the gating for each experiment.” left out

[7] = test system: CD8+PD1+CD38+ primary T cells; experiment: Immune exhaustion markers, CD8+PD1+CD38+ primary T cells; type: cell-based, human; details: PBMCs from healthy donors, 24 h
Protocol: as §3

[8] = test system: HIV-1 in CD4+ T cells from HIV-1-infected individuals; experiment: Ex vivo reactivation, intracellular HIV-1 mRNA in primary CD4+ T cells from HIV-1-infected individuals; type: cell-based; details: 1 μM JQ1, 24 h, seven individuals
Protocol: Primary cells were isolated from seven HIV-1^+ individuals, and ex vivo reactivation experiments were conducted as previously described ([Matsuda et al., 2019]). In brief, peripheral blood samples were collected from HIV-1-infected participants receiving cART for at least 5 years (Table 1). All subjects maintained a low viral load (<20 copies/ml, except for occasional “blips”) during therapy. CD4^+ T cell counts in peripheral blood samples ranged from 477 to 992 cells/mm^3 (average: 631 cells/mm^3), and plasma viral loads were <20 copies/ml (except for one participant whose viral load was 22 copies/ml) as measured by quantitative PCR (qPCR; COBAS AmpliPrep/COBAS TaqMan HIV-1 Test version 2.0; Roche Diagnostics, Basel, Switzerland) at the time of study enrollment. The Ethics Committee at the National Center for Global Health and Medicine approved this study (NCGM-G-002259-00), and each patient provided written informed consent. […] The number of HIV-1 RNA copies was calculated using a standard curve obtained from serially diluted HIV-1pNL4-3 plasmid, and normalized values [HIV-1 RNA copies/input RNA (ng)] for each drug were compared to those without drug treatment. The relative increase in HIV-1 RNA levels in the presence of each drug or combination was then determined.

BALB/c mice = experiment: In vivo acute toxicity (24 h) in BALB/c mice
Description: BALB/c mice were purchased from Charles River Laboratories Japan, Inc. (Yokohama, Japan). Female mice at 5 weeks of age were used for the experiments. The mice were housed and monitored in our animal research facility according to the institutional guidelines. All experimental procedures and protocols were approved by the Institutional Animal Care and Use Committee of Kumamoto University.

[9] = PMA control, concentration not given

Structure (SMILES) | EC50 [1] | CC50 at 7 days [2] | EC50 [3] | CC50 at 7 days [4] | intracellular p24-positive live cells (flow cytometry quadrant) ([5]; 0.1 µM, 24 h) | intracellular p24-positive live cells (flow cytometry quadrant) ([5]; 1 µM, 24 h) | intracellular p24-positive live cells (flow cytometry quadrant) ([5]; 10 µM, 24 h) | intracellular p24-positive live cells (flow cytometry quadrant) ([6]; 0.1 µM, 24 h) | intracellular p24-positive live cells (flow cytometry quadrant) ([6]; 1 µM, 24 h) | intracellular p24-positive live cells (flow cytometry quadrant) ([6]; 10 µM, 24 h) | increase in CD8+ PD1+ CD38+ T cells [7] | further results
CCCCCCCCCC(=O)OCC1(CO)CC(=C(C)C)C(=O)O1 (centres unmarked) [HTA14-472] | > 10 µM | > 100 µM | > 10 µM | > 100 µM | 0.28 | 0.262 | 2.98 | 0.714 | 0.526 | 17.4 |  | 
CC(=O)O[C@@]12C[C@@H](C)[C@@]3(O)[C@@H](C=C(CO)C[C@]4(O)C(=O)C(C)=C[C@@H]34)[C@@H]1C2(C)C [Prostratin, reference compound] | 0.33 µM | > 100 µM | 0.32 µM | > 100 µM | 0.333 | 33.5 | 40.7 | 4.99 | 68.7 | 76.7 | significant increase | LRA activity in the presence of 10% mouse serum versus 10% FBS (J-Lat 10.6 cells; GFP-positive cells): did not change; caspase-3 activation (U937 cells): 18.8%; caspase-3 activation (U1 cells): 19.1%
Cc1sc2c(c1C)C(c1ccc(Cl)cc1)=N[C@@H](CC(=O)OC(C)(C)C)c1nnc(C)n1-2 [JQ1, reference compound] |  |  |  |  |  |  |  |  |  |  |  | HIV-1 mRNA compared to no drug control [8]: 2.25 fold; number of GFP+ cells (J-Lat 10.6 cells; 100–400 nM): 12.6%
CCCCCCCCCC(=O)OCC1(CO)C/C(=C\CC(C(C)C)C(C)C)C(=O)O1 (centres unmarked) [YOK058E] | > 10 µM | > 100 µM | 8.24 µM | > 100 µM | 0.208 | 0.197 | 13.3 | 0.629 | 3.24 | 67.2 |  | 
C/C=C(/C)C(=O)O[C@H]1C(C)=C[C@]23C(=O)[C@@H](C=C(CO)[C@@H](O)[C@]12O)[C@H]1[C@@H](C[C@H]3C)C1(C)C [PEP005] |  |  |  |  |  |  |  |  |  |  | significant increase | concentration at which acute toxicity started (BALB/c mice; intraperitoneal): 300 µg/kg; survival (BALB/c mice; intraperitoneal, 1,000 μg/kg): all tested mice died
CCCCCCCCCCCCCC(=O)O[C@@H]1[C@@H](C)[C@@]2(O)[C@@H](C=C(CO)C[C@]3(O)C(=O)C(C)=C[C@@H]23)[C@@H]2C(C)(C)[C@]12OC(C)=O [PMA, Phorbol 12-myristate 13-acetate, reference compound] |  |  |  |  |  |  |  |  |  |  |  | intracellular p24-positive live cells (flow cytometry quadrant) [5, 9]: 42.2; intracellular p24-positive live cells (flow cytometry quadrant) [6, 9]: 77.8
